Test results: patent US20220041641A1, “QUATERNARY AMMONIUM SALTS AS INHIBITORS OF TRIMETHYLAMINE PRODUCTION” (Senda Biosciences, Inc., priority 2018, published 2022)
Structures can show the parent of a compound that is named as a salt. Where two headings read alike, the source gives them in different places.

Assays:
CutC/D enzyme = assay: Acute mouse model (plasma TMAO on choline diet); format: in vivo, male C57BL/6 mice
Description: The following acute mouse model may be used to determine inhibition of the CutC/D enzyme and thus the inhibition of the formation of trimethylamine (TMA) from choline.
On day 1, male C57BL/6 mice were given a chemically defined diet (Tekland Global Rodent Diet 2018) containing 1.0% choline (g/g) for the duration of the experiment. Concurrently on day 1, mice were orally gavaged with 200 μL of compounds of interest (formulated in water). Mice were orally gavaged with the compounds and vehicle control again on day 2 and day 3 at a fixed time. Twenty hours after the last gavage, mice were sacrificed, and plasma was collected and prepared for detection of trimethylamine-N-oxide (TMAO) via liquid chromatography with on-line tandem mass spectrometry (LC-MS/MS). Food consumption and mouse weight were measured each day.
Plasma samples were prepared for LCMS as follows: An aliquot of 20 μL plasma sample was protein precipitated with 200 μL internal standard solution (100 ng/mL Labetalol & 100 ng/mL Tolbutamide & 100 ng/mL Diclofenac in acetonitrile, the mixture was vortex-mixed and centrifuged at 4000 rpm for 15 min, 4° C. An aliquot of 100 μL supernatant was transferred to the sample plate for LCMS injection. 1 μL of sample was injected onto an LC column for TMAO LCMS analysis.
Concentrations of TMAO were determined with a calibration curve ranging 0.05-100 μM for d9-TMAO in control plasma.

[1] = biological target: CutC from Proteus mirabilis (Proteus mirabilis, UniProt B4EYG1); assay: Cell-based assay for TMA production from a native producer (P. mirabilis)
CutC from Proteus mirabilis, sequence (B4EYG1 entry or part of it): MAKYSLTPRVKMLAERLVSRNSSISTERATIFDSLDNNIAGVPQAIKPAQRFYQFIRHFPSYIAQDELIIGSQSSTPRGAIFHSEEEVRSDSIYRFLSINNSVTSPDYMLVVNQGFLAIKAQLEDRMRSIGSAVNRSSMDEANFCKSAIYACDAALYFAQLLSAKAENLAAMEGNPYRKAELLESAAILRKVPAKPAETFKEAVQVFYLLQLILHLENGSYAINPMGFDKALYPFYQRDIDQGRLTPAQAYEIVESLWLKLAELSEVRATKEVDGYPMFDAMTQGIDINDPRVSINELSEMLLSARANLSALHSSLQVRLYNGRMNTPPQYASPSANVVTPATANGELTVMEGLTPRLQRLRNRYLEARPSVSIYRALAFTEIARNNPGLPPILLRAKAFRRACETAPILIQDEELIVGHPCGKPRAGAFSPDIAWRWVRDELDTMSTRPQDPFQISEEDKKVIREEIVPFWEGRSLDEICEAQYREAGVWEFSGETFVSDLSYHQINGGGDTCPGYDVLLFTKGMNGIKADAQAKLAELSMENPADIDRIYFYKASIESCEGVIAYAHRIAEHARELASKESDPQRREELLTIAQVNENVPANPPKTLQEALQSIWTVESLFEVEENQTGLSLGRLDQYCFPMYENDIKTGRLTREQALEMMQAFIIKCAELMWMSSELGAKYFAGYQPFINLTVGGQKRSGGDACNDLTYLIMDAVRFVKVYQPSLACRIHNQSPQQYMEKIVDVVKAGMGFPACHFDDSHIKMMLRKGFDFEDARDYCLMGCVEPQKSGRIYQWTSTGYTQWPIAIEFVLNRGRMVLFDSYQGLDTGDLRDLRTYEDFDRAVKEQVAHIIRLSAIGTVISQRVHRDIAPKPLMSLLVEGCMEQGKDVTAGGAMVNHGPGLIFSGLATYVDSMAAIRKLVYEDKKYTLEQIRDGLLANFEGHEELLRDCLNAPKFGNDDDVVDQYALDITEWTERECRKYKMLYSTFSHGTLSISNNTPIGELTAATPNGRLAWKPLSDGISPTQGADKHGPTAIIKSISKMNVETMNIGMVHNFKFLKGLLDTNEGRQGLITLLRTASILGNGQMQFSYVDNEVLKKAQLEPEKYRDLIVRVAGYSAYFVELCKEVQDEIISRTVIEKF
CutC from Proteus mirabilis, sequence (B4EYG0 entry or part of it, further chain): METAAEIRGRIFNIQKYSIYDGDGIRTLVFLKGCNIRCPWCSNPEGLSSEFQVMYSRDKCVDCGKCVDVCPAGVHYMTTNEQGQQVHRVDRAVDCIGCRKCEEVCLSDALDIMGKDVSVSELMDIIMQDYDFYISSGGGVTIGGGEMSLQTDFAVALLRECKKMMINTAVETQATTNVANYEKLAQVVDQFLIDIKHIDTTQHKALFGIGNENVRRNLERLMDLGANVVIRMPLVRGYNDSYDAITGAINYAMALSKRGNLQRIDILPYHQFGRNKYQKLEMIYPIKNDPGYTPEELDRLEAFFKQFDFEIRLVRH
Description: In each bacterium, CutC was modified into its activated form by a cognate activating enzyme, CutD (protein EDU36696.1 for C. sporogenes; protein WP_004249185.1 for P. mirabilis). […] Trimethylamine may subsequently be converted by human enzymes such as flavin monooxygenase 3 to trimethylamine N-oxide, which might be associated with negative health consequences in humans.
A compound's ability to inhibit CutC from Proteus mirabilis and C. sporogenes from converting choline into trimethylamine was tested in cells as described. A BHI blood plate was inoculated with a frozen stock of Proteus mirabilis or Clostridium sporogenes under anaerobic conditions. A single colony was isolated from the plate and inoculated into 5 mL BHI supplemented with 1 mM choline under anaerobic conditions. The liquid cultures were grown overnight at 37° C.
To prepare each sample, 300 μL of the saturated culture was then inoculated into a 30 mL dilution blank under anaerobic conditions. 1 mM (trimethyl-d9)-choline and a sufficient amount of a compound to obtain a final concentration of 10 μM were added to the inoculated dilution blank. […] The mixture was incubated at 37° C. for 5 h. […] After centrifugation, the samples were analyzed by LCMS to determine the amount of d9-TMA produced.

[2] = Table 4d, 100 mg/kg oral gavage days 1-3
[3] = Table 4d, 100 mg/kg oral gavage days 1-3, plasma 20 h after last gavage
[4] = d9-TMA from 1 mM d9-choline, 5 h, 37° C.; value 10 given when no fit or % TMA remaining at 10 μM higher than 15%; read-out: Average IC50 Whole cell P. mirabilis
[5] = read-out: Average IC50 Whole cell P. mirabilis; d9-TMA from 1 mM d9-choline, 5 h, 37° C.; value 10 given when no fit or % TMA remaining at 10 μM higher than 15%

Compound	IC50 [1, 4]	further results
C#CC[N+](C)(C)CCOC1OC[C@@H](OC(C)=O)[C@@H](OC(C)=O)[C@H]1OC(C)=O.[Br-] (stereo partly drawn) [Compound 9, N,N-dimethyl-N-(2-(((3R,4R,5R)-3,4,5-triacetoxytetrahydro-2H-pyran-2-yl)oxy)ethyl)prop-2-yn-1-aminium bromide]		% change from vehicle control + choline diet (CutC/D enzyme; [2]): 80%; Mean plasma TMAO (CutC/D enzyme; [3]): 33.91 µM
C#CC[N+](C)(C)CCO[C@@H]1OC[C@H](OC(C)=O)[C@H](OC(C)=O)[C@H]1OC(C)=O.[I-] [Compound 10, N,N-dimethyl-N-(2-(((3R,4S,5S)-3,4,5-triacetoxytetrahydro-2H-pyran-2-yl)oxy)ethyl)prop-2-yn-1-aminium Iodide]		% change from vehicle control + choline diet (CutC/D enzyme; [2]): −21%; Mean plasma TMAO (CutC/D enzyme; [3]): 14.9 µM
C#CC[N+](C)(C)CC(=O)O[C@H]1O[C@H](COC(C)=O)[C@@H](OC(C)=O)[C@H](OC(C)=O)[C@H]1OC(C)=O.O=C([O-])C(F)(F)F [Compound 19, N,N-dimethyl-N-(2-oxo-2-(((2R,3R,4S,5R,6R)-3,4,5-triacetoxy-6-(acetoxymethyl)tetrahydro-2H-pyran-2-yl)oxy)ethyl)prop-2-yn-1-aminium trifluoroacetate]	1730 nM	% change from vehicle control + choline diet (CutC/D enzyme; Table 4a, 333 mg/kg oral gavage days 1-3): −84.29%; Mean plasma TMAO (CutC/D enzyme; Table 4a, 333 mg/kg oral gavage days 1-3, plasma 20 h after last gavage): 5.40 µM
C#CC[N+](C)(C)CCCCOC1O[C@@H](C)[C@@H](OC(=O)CCC)[C@@H](OC(=O)CCC)[C@@H]1OC(=O)CCC.[Br-] (stereo partly drawn) [Compound 58, N,N-dimethyl-N-(prop-2-yn-1-yl)-4-(((3S,4R,5R,6S)-3,4,5-tris(butyryloxy)-6-methyltetrahydro-2H-pyran-2-yl)oxy)butan-1-aminium bromide]		% change from vehicle control + choline diet (CutC/D enzyme; Table 4d, 10 mg/kg oral gavage days 1-3): −46%; Mean plasma TMAO (CutC/D enzyme; Table 4d, 10 mg/kg oral gavage days 1-3, plasma 20 h after last gavage): 10.1 µM
C[N+]1(CF)CCC[C@@H]1CO (stereo partly drawn) [Compound 151, (2R)-1-(fluoromethyl)-2-(hydroxymethyl)-1-methylpyrrolidin-1-ium Iodide]	890 nM	% change from vehicle control + choline diet (CutC/D enzyme; Table 4g, 116 mg/kg oral gavage days 1-3): 6%; Mean plasma TMAO (CutC/D enzyme; Table 4g, 116 mg/kg oral gavage days 1-3, plasma 20 h after last gavage): 29.4 µM
C#CC[N+](C)(C)CC(=C)Cl.[Cl-] [Compound 185, (2-chloroprop-2-en-1-yl)dimethyl(prop-2-yn-1-yl)azanium Chloride]	235 nM	% change from vehicle control + choline diet (CutC/D enzyme; Table 4e, 123.7 mg/kg oral gavage days 1-3): −16%; Mean plasma TMAO (CutC/D enzyme; Table 4e, 123.7 mg/kg oral gavage days 1-3, plasma 20 h after last gavage): 22.2 µM
C#CC[N+](C)(C)CCP(=O)(OCC)OCC [Compound 202, diethyl {2-[dimethyl(prop-2-yn-1-yl)azaniumyl]ethyl}phosphonate Bromide]		IC50 [1, 5]: 242 nM
C=CC[N+](C)(C)CC(=C)C(=O)OC [Compound 203, N-allyl-2-(methoxycarbonyl)-N,N-dimethylprop-2-en-1-aminium 2,2,2-trifluoroacetate]	1720 nM	
C#CC[N+](C)(C)CCC [Compound 204, dimethyl(prop-2-yn-1-yl)propylazanium Iodide]	660 nM	
C#CC[N+]1(CF)CCC[C@H]1CO (stereo partly drawn) [Compound 205, (2S)-1-(fluoromethyl)-2-(hydroxymethyl)-1-(prop-2-yn-1-yl)pyrrolidin-1-ium Iodide]	8300 nM	
C#CC[N+](C)(C)CC [Compound 206, ethyldimethyl(prop-2-yn-1-yl)azanium Iodide]	69 nM	
C#CC[N+](C)(C)Cc1ncco1 [Compound 207, dimethyl[(1,3-oxazol-2-yl)methyl](prop-2-yn-1-yl)azanium Chloride]	310 nM	
C#CC[N+](C)(C)CC(=C)C [Compound 208, N,N,2-trimethyl-N-(prop-2-yn-1-yl)prop-2-en-1-aminium 2,2,2-trifluoroacetate]	> 10000 nM	
C#CC[N+](C)(C)CC(=C)F [Compound 209, 2-fluoro-N,N-dimethyl-N-(prop-2-yn-1-yl)prop-2-en-1-aminium 2,2,2-trifluoroacetate]	6800 nM	
C#CC[N+](C)(C)CCP(=O)(O)O [Compound 210, {2-[dimethyl(prop-2-yn-1-yl)azaniumyl]ethyl}phosphonic Acid]		IC50 [1, 5]: > 10000 nM
C#CC[N+](C)(C)CC=C [Compound 211, N,N-dimethyl-N-(prop-2-yn-1-yl)prop-2-en-1-aminium 2,2,2-trifluoroacetate]	211 nM	
COC[N+](C)(C)CCO [Compound 212, (2-hydroxyethyl)(methoxymethyl)dimethylazanium trifluoroacetate]	1990 nM	
CC[N+](C)(CF)CCO (stereo not drawn) [Compound 213, ethyl(fluoromethyl)(2-hydroxyethyl)(methyl)azanium Iodide]	180 nM	

Compound	IC50 [1, 4]	further results
C#CC[N+]1(CF)CC[C@@H](O)C1 (stereo partly drawn) [Compound 214, (3R)-1-(fluoromethyl)-3-hydroxy-1-(prop-2-yn-1-yl)pyrrolidin-1-ium]	3870 nM	
C#CC[N+](C)(C)CCC(=O)NS(C)(=O)=O [Compound 215, [2-(methanesulfonylcarbamoyl)ethyl]dimethyl(prop-2-yn-1-yl)azanium]	409 nM	
C#CC[N+](C)(C)CC(=O)NS(C)(=O)=O [Compound 216, [(methanesulfonylcarbamoyl)methyl]dimethyl(prop-2-yn-1-yl)azanium]	> 10000 nM	
C#CC[N+](C)(C)CC(=C)Br [Compound 217, (2-bromoprop-2-en-1-yl)dimethyl(prop-2-yn-1-yl)azanium]	771 nM	
C[N+]1(C)CCOC(O)(C(F)(F)F)C1 (stereo not drawn) [Compound 218, 2-hydroxy-4,4-dimethyl-2-(trifluoromethyl)morpholin-4-ium trifluoroacetate]	> 10000 nM	
C[N+](C)(CCO)C1COC1 [Compound 219, N-(2-hydroxyethyl)-N,N-dimethyloxetan-3-aminium trifluoroacetate]	> 10000 nM	
C[N+]1(C)CCOCC1CO (stereo not drawn) [Compound 220, 3-(hydroxymethyl)-4,4-dimethylmorpholin-4-ium]	> 10000 nM	
C#CC[N+](C)(C)CCS(=O)(=O)O [Compound 221, dimethyl(prop-2-yn-1-yl)(2-sulfoethyl)azanium Trifluoroacetate]	> 10000 nM	
C#CC[N+](C)(C)CCCB(O)O [Compound 222, {3-[dimethyl(prop-2-yn-1-yl)azaniumyl]propyl}boronic Acid]	> 10000 nM	
C#CC[N+](C)(CC#C)CCS(=O)(=O)O [Compound 223, methylbis(prop-2-yn-1-yl)(2-sulfoethyl)azanium]	2280 nM	
C#CC[N+](C)(C)Cc1ncno1 [Compound 224]	223 nM	
CCC[N+](C)(CF)CCO (stereo not drawn) [Compound 225]	629 nM	
C#CC1CCC[N+]1(C)C (stereo not drawn) [Compound 226]	244 nM	
C#CC[N+](C)(C)CC[PH](=O)O [Compound 227, {2-[dimethyl(prop-2-yn-1-yl)azaniumyl]ethyl}phosphinic Acid]		IC50 [1, 5]: > 10000 nM
COCC[N+](C)(C)CF [Compound 228, (fluoromethyl)(2-methoxyethyl)dimethylazanium Iodide]	> 10000 nM	
CSCC[N+](C)(C)CF [Compound 229, (fluoromethyl)dimethyl[2-(methylsulfanyl)ethyl]azanium]	> 100000 nM	
CC(=O)OC[C@H]1OC(OCC[N+](C)(C)C2CC2)[C@H](OC(C)=O)[C@@H](OC(C)=O)[C@@H]1OC(C)=O.[I-] (stereo partly drawn) [Compound 312, N,N-dimethyl-N-(2-(((3R,4S,5R,6R)-3,4,5-triacetoxy-6-(acetoxymethyl)tetrahydro-2H-pyran-2-yl)oxy)ethyl)cyclopropanaminium iodide]		% change from vehicle control + choline diet (CutC/D enzyme; Table 4d, 35.4 mg/kg oral gavage days 1-3): −38%; Mean plasma TMAO (CutC/D enzyme; Table 4d, 35.4 mg/kg oral gavage days 1-3, plasma 20 h after last gavage): 11.69 µM
